Experiment [1] has as its target T1, 3-hydroxy-3-methylglutaryl-coenzyme A reductase (Homo sapiens, UniProt P04035).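 Also: enzyme inhibition assay of HMG-CoA reductase using radiolabeled [14C]HMG-CoA as substrate; in other assays of this panel Not Active means under 50% inhibition at 10 µM.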
T1 sequence (P04035 whole entry): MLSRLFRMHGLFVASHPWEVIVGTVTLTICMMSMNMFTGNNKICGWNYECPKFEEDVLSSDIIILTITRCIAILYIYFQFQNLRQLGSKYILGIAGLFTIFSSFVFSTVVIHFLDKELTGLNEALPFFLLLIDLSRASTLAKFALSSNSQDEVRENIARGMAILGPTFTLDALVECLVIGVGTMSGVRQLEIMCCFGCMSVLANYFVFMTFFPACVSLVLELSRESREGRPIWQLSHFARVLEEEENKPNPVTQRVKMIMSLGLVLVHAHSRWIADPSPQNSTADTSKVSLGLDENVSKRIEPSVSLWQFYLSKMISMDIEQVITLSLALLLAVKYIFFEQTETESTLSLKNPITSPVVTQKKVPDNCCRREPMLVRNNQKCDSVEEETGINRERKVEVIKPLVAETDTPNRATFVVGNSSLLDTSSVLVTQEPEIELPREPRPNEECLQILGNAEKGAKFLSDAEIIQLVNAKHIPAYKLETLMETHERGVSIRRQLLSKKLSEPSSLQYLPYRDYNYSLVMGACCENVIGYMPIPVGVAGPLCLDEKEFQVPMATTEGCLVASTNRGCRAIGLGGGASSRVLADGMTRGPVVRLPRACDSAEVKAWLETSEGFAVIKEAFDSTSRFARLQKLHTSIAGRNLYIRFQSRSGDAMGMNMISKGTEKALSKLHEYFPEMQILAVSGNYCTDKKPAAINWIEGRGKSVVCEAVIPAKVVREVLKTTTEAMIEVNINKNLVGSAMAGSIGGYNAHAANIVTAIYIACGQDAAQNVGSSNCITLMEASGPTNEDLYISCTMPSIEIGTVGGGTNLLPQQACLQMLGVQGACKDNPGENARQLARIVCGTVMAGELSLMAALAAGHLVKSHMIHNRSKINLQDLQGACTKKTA
More on the design: species or system Escherichia coli.

Experiment [2] has as its target Mitogen-activated protein kinase 1 (Homo sapiens, UniProt P28482). Description: DRUGMATRIX: Protein Serine/Threonine Kinase, ERK2 enzyme inhibition (substrate: Myelin Basic Protein). More on the design: species or system Escherichia coli. To be noted: Not Active = under 50% inhibition at 10 µM.
In experiment [3] the target is Beta-1 adrenergic receptor (Homo sapiens, UniProt P08588). Description: DRUGMATRIX: Adrenergic beta1 radioligand binding (ligand: [125I] Cyanopindolol). To be noted: Not Active = under 50% inhibition at 10 µM; for IC50: cho-k1. In kind it is cell membranes, CHO-K1, Membrane.
In the next experiment the target is T2, Estrogen receptor (Homo sapiens, UniProt P03372). Also: in other assays of this panel Not Active means under 50% inhibition at 10 µM.
T2 sequence (P03372 whole entry): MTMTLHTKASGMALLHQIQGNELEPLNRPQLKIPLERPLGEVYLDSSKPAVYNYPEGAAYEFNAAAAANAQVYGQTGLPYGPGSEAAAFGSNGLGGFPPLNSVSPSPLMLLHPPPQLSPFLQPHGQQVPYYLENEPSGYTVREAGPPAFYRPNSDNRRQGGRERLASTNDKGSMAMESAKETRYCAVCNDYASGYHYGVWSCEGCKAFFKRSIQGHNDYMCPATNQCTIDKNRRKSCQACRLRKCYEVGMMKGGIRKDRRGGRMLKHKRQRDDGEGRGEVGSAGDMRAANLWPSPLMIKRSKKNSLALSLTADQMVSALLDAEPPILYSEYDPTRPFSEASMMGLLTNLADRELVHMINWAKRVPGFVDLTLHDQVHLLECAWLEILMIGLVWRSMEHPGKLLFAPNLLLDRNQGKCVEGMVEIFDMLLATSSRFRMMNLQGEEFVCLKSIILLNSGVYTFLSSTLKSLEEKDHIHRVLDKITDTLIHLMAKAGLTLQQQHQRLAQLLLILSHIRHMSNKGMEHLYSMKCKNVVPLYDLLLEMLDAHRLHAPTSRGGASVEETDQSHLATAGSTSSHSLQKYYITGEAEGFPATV
To be noted: sf9.

The next experiment addresses T3, Androgen receptor (Rattus norvegicus, UniProt P15207).
T3 sequence (P15207 whole entry): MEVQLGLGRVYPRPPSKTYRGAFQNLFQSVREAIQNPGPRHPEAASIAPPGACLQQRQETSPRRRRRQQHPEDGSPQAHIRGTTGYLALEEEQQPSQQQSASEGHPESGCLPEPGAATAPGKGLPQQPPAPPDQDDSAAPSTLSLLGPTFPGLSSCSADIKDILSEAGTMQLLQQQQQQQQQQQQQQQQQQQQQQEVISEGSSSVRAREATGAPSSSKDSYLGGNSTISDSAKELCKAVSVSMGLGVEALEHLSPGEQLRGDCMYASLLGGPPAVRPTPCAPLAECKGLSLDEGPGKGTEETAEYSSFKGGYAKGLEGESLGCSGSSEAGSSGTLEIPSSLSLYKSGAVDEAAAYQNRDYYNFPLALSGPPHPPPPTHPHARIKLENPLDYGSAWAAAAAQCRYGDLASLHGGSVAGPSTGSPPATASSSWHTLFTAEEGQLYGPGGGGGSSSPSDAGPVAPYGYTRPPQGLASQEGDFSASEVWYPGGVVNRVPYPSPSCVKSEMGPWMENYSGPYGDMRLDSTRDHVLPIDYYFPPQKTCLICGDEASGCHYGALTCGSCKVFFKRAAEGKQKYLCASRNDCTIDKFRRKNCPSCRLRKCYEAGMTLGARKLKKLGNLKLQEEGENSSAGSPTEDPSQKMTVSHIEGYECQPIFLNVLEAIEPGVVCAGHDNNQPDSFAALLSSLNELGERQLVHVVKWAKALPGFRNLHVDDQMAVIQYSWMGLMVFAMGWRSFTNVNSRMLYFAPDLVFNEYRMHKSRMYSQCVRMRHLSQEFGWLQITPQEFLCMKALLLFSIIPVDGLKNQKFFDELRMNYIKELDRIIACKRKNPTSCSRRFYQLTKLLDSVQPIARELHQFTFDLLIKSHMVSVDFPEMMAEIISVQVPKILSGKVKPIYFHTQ

pIC50, pKi: −log10 of the molar value.

Data on 26 molecules can be found in ChEMBL document CHEMBL1909046, “DrugMatrix in vitro pharmacology data”.

Sequence of Beta-1 adrenergic receptor (P08588 whole entry): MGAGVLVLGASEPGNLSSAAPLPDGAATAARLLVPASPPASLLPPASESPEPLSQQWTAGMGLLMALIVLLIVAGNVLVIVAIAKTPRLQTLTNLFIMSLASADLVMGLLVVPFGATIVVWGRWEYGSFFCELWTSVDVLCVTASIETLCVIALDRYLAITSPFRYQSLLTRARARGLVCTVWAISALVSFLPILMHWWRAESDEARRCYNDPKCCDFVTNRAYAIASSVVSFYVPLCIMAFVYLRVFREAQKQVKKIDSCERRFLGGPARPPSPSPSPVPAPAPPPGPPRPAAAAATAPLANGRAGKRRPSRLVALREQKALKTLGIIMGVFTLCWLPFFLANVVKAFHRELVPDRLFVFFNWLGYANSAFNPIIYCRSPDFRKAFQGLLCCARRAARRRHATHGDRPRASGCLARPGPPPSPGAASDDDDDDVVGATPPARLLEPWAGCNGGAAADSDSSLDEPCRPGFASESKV
Sequence of Mitogen-activated protein kinase 1 (P28482 whole entry): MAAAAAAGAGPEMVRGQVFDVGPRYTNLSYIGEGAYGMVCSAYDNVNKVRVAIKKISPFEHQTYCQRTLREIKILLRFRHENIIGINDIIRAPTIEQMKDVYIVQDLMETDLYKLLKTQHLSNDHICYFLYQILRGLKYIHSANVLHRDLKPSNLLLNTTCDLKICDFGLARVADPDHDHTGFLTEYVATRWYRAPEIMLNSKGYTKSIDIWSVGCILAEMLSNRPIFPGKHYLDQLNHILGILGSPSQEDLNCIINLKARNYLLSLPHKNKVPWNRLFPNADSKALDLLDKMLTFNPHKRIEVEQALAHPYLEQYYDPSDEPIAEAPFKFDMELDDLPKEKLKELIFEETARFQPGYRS

For `CC1=C(CC(=O)O)c2cc(F)ccc2/C1=C\c1ccc([S+](C)[O-])cc1` (centres undefined), the IC50 entry in experiment [1], in experiment [2] and in experiment [3] was “Not Active” in each case.

On to `N[C@H](CSC(=S)NCc1ccccc1)C(=O)O`, for which the IC50 entry (on Estrogen receptor; in experiment [1]; in experiment [2]; in experiment [3]; at Androgen receptor) was “Not Active” in each case.

On to `Clc1ccc2c(c1)C(N1CCNCC1)=Nc1ccccc1O2` [AMOXAPINE], for which the IC50 entry (against Estrogen receptor; in experiment [1]; in experiment [2]; in experiment [3]) was “Not Active” throughout.

Consider `CN1CCC(=C2c3ccccc3C=Cc3ccccc32)CC1` [CYPROHEPTADINE], for which the IC50 entry (against Estrogen receptor; in experiment [1]; in experiment [2]; in experiment [3]) was “Not Active” each time.

One may read the pIC50 as the negative decadic logarithm of the IC50, by convention in mol/L. One may read the pKi as the Ki on a negative log10 scale, so that one unit is a factor of ten. Consider `CC/C(=C(/CC)c1ccc(O)cc1)c1ccc(O)cc1` [DIETHYLSTILBESTROL], for which the IC50 result in experiment [1] and in experiment [2] was “Not Active” each time. In addition, the pIC50 in experiment [3] (read-out: IC50) was 4.66. Also, the negative-log Ki (pKi) in experiment [3] (read-out: Ki) is 4.89.

As to `CC(=O)N1CCN(c2ccc(OCC3COC(Cn4ccnc4)(c4ccc(Cl)cc4Cl)O3)cc2)CC1` (centres undefined) [KETOCONAZOLE], the IC50 entry (against Estrogen receptor; in experiment [1]; in experiment [2]; in experiment [3]) was “Not Active” each time.

As for `C=CCN1CC[C@]23c4c5ccc(O)c4O[C@H]2C(=O)CC[C@@]3(O)[C@H]1C5` [NALOXONE], the IC50 result in experiment [1], in experiment [2] and in experiment [3] was “Not Active” each time.

Regarding `COCCOC(=O)C1=C(C)NC(C)=C(C(=O)OC(C)C)C1c1cccc([N+](=O)[O-])c1` (centres undefined) [NIMODIPINE], the IC50 entry (at Estrogen receptor; in experiment [1]; in experiment [2]; in experiment [3]) was “Not Active” throughout.

With `CC(C)NCC(O)COc1cccc2ccccc12` (centres undefined) [PROPRANOLOL], the IC50 result in experiment [1] and in experiment [2] was “Not Active” each time.

For `COCCCOc1ccnc(C[S+]([O-])c2nc3ccccc3[nH]2)c1C` (centres undefined) [RABEPRAZOLE], the IC50 entry in experiment [1], in experiment [2] and in experiment [3] was “Not Active” in each case.

For `O=C(c1ccc(OCCN2CCCCC2)cc1)c1c(-c2ccc(O)cc2)sc2cc(O)ccc12` [RALOXIFENE], the IC50 result in experiment [1], in experiment [2] and in experiment [3] was “Not Active” each time.

Turning to `CNC(=C[N+](=O)[O-])NCCSCc1ccc(CN(C)C)o1` [RANITIDINE], the IC50 entry (against Estrogen receptor; in experiment [1]; in experiment [2]; in experiment [3]) was “Not Active” throughout.

With `CC(C)c1nc(CN(C)C(=O)N[C@H](C(=O)N[C@@H](Cc2ccccc2)C[C@H](O)[C@H](Cc2ccccc2)NC(=O)OCc2cncs2)C(C)C)cs1` [RITONAVIR], the IC50 result (against Estrogen receptor; in experiment [1]; in experiment [2]; in experiment [3]) was “Not Active” in each case.

As for `CC(C)CC(N(C)C)C1(c2ccc(Cl)cc2)CCC1` (centres undefined) [SIBUTRAMINE], the IC50 entry in experiment [1], in experiment [2] and in experiment [3] was “Not Active” in each case.

In the case of `[H]/N=C(/N)N[C@H]1[C@H](O)[C@@H](O)[C@H](O[C@@H]2O[C@@H](C)[C@](O)(C=O)[C@H]2O[C@@H]2O[C@@H](CO)[C@H](O)[C@@H](O)[C@@H]2NC)[C@@H](N/C(N)=N\[H])[C@@H]1O` [STREPTOMYCIN], the IC50 entry (against Estrogen receptor; in experiment [1]; in experiment [2]; in experiment [3]) was “Not Active” in each case.

For the molecule `Cc1cc(C)nc(NS(=O)(=O)c2ccc(N)cc2)n1` [SULFAMETHAZINE], the IC50 result in experiment [1], in experiment [2] and in experiment [3] was “Not Active” throughout.

Take `C[C@]1(Cn2ccnn2)[C@H](C(=O)O)N2C(=O)C[C@H]2S1(=O)=O` [TAZOBACTAM]: the IC50 result (at Estrogen receptor; in experiment [1]; in experiment [2]; in experiment [3]) was “Not Active” each time.

For `CN1C(C(=O)Nc2ccccn2)=C(O)c2sccc2S1(=O)=O` [TENOXICAM], the IC50 entry (against Estrogen receptor; in experiment [1]; in experiment [2]; in experiment [3]) was “Not Active” throughout.

For the molecule `CC(C)(C)c1ccc(C(O)CCCN2CCC(C(O)(c3ccccc3)c3ccccc3)CC2)cc1` (centres undefined) [TERFENADINE], the IC50 result (against Estrogen receptor; in experiment [1]; in experiment [2]; in experiment [3]) was “Not Active” each time.

With `O=C1CCC(N2C(=O)c3ccccc3C2=O)C(=O)N1` (centres undefined) [THALIDOMIDE], the IC50 entry in experiment [1], in experiment [2] and in experiment [3] was “Not Active” in each case.

Consider `Cc1cccc(Nc2ccncc2S(=O)(=O)NC(=O)NC(C)C)c1` [TORSEMIDE], for which the IC50 entry (at Estrogen receptor; in experiment [1]; in experiment [2]; in experiment [3]) was “Not Active” in each case.

For the molecule `CC(C)C[C@H](NC(=O)[C@@H](O)[C@H](N)Cc1ccccc1)C(=O)O` [UBENIMEX], the IC50 result (at Estrogen receptor; in experiment [1]; in experiment [2]; in experiment [3]) was “Not Active” throughout.

On to `Cc1onc(-c2ccccc2)c1-c1ccc(S(N)(=O)=O)cc1` [VALDECOXIB], for which the IC50 entry in experiment [1], in experiment [2] and in experiment [3] was “Not Active” in each case.

As to `CC[C@]1(O)C[C@@H]2CN(CCc3c([nH]c4ccccc34)[C@@](C(=O)OC)(c3cc4c(cc3OC)N(C)[C@H]3[C@@](O)(C(=O)OC)[C@H](OC(C)=O)[C@]5(CC)C=CCN6CC[C@]43[C@@H]65)C2)C1` [VINBLASTINE], the IC50 result (on Estrogen receptor; in experiment [1]; in experiment [2]; in experiment [3]) was “Not Active” in each case.

Turning to `CC(=O)CC(c1ccccc1)c1c(O)c2ccccc2oc1=O` (centres undefined) [WARFARIN], the IC50 entry in experiment [1], in experiment [2] and in experiment [3] was “Not Active” each time.

As for `[Cl-].[Cl-].[Zn+2]` [ZINC CHLORIDE], the IC50 entry (at Estrogen receptor; in experiment [1]; in experiment [2]; in experiment [3]) was “Not Active” throughout.
